Literature values as cited in patent publication US20110253140A1, “FORMULATIONS CONTAINING LARGE-SIZE CARRIER PARTICLES FOR DRY POWDER INHALATION AEROSOLS” (STC.UNM, priority 2008, published 2011).
Read-outs that look alike come from different tables or passages of the source.

lung deposition, % of the metered dose (PIF 35 L/min): 14.8%
lung deposition, % of the metered dose (peak inspiratory flow rate (PIF) 60 L/min): 27.7%
SMILES: CCCC1O[C@@H]2C[C@H]3[C@@H]4CCC5=CC(=O)C=C[C@]5(C)[C@H]4[C@@H](O)C[C@]3(C)[C@]2(C(=O)CO)O1 (some centres unmarked) [budesonide]
